Results published in article PMC10343299, “S-Ethyl-Isothiocitrullin-Based Dipeptides and 1,2,4-Oxadiazole Pseudo-Dipeptides: Solid Phase Synthesis and Evaluation as NO Synthase Inhibitors” (Molecules, 2023).
Read-outs that look alike come from different tables or passages of the source.

Legend:
[1] = target: T1, mouse iNOS (Mus musculus, UniProt P29477); assay: NOS inhibition, oxyhemoglobin (hemoglobin capture) test, recombinant iNOS; type: biochemical; settings: recombinant enzyme, 20 µM arginine, triplicate, NI = <50% inhibition at 100 μM
T1 construct: Full-length recombinant rat nNOS, mouse iNOS, bovine eNOS; made in house; host or cells: Escherichia coli
T1 sequence (P29477 1-1144): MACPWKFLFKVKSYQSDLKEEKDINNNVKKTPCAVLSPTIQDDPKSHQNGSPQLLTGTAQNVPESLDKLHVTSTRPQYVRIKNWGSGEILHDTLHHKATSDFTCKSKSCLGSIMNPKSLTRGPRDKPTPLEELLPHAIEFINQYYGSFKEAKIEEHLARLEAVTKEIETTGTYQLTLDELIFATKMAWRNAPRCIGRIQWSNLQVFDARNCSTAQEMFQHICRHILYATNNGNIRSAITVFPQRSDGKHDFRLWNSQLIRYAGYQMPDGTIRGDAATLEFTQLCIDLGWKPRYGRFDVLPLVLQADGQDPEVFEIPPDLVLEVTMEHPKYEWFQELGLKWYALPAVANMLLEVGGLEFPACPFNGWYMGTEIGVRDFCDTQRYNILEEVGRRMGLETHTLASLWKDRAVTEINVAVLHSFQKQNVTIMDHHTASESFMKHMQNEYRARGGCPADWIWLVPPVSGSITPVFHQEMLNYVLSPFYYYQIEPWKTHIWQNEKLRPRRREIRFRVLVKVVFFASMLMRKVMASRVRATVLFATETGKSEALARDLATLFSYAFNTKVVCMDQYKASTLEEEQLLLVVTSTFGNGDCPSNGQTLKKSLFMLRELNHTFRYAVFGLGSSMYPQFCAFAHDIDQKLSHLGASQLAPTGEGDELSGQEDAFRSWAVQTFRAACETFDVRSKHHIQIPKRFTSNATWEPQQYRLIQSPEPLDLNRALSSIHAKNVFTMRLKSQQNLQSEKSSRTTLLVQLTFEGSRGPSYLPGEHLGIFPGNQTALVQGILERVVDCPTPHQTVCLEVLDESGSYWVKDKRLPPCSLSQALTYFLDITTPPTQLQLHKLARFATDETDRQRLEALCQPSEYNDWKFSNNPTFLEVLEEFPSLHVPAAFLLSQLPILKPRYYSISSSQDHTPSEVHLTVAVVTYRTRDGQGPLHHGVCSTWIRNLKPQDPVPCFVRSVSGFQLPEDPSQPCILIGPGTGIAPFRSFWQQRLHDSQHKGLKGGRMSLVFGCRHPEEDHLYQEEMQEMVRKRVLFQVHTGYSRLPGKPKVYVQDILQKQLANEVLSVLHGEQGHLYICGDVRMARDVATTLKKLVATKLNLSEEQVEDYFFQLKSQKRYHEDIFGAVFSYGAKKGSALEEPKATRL
Experimental: (§1) The inhibitory effects of all compounds against the three recombinant NOSs (rat nNOS, mouse iNOS, and bovine eNOS) were evaluated in 96-well plates using the oxyhemoglobin test. A first screening at 100 and 10 μM was performed, and the IC50 values were measured for compounds showing more than 50% inhibition at 100 μM (Table 1 and Table 2).
(§2) Full-length recombinant rat nNOS, mouse iNOS, bovine eNOS, and the heme domains of rat brain nNOS and mouse iNOS were expressed in Escherichia coli and purified as described previously.
(§3) NOS catalytic activity was measured using the hemoglobin capture assay. The test was performed at 30 °C in 96-well microplates using a final volume of 200 µL. The assay mixture contained 100 µM NADPH, 10 µM BH4, 6 µM HbO2, 100 µM DTT, 5 µM FAD, 5 µM FMN, 10 µM (nNOS and eNOS), or 20 µM (iNOS) arginine, all in a 100 mM Hepes buffer, pH 7.5, and, for constitutive n- and e-NOS, 10 µg/mL calmodulin, and 1 mM CaCl2. The studied compounds were introduced as 2 μL of ×100 concentrated solutions in DMSO, and the control experiments were performed with DMSO or the buffer only. The kinetics of NO production were measured at 401 nm using an Infinite F500 microplate reader (Tecan, Singapore).

[2] = target: T2, rat nNOS (Rattus norvegicus, UniProt P29476); assay: NOS inhibition, oxyhemoglobin (hemoglobin capture) test, recombinant nNOS; type: biochemical
T2 construct: Full-length recombinant rat nNOS, mouse iNOS, bovine eNOS; made in house; host or cells: Escherichia coli
Experimental: as §1, §2, §3

[3] = target: T3, bovine eNOS (Bos taurus, UniProt P29473); assay: NOS inhibition, oxyhemoglobin (hemoglobin capture) test, recombinant eNOS; type: biochemical; settings: recombinant enzyme, 10 µM arginine, triplicate, NI = <50% inhibition at 100 μM; for inhibition at 100 µM: read-out: IC50 (μM) eNOS (Bovine)
T3 construct: Full-length recombinant rat nNOS, mouse iNOS, bovine eNOS; made in house; host or cells: Escherichia coli

[4] = system: RAW 264.7 cells; assay: Cell viability, MTT assay; type: cell-based, murine; settings: for Effect on cell viability (MTT): up to 100 μM
Experimental: Cell viability was evaluated in the murine macrophage RAW 264.7 cells using an MTT assay for compounds 18, 21, 26, and 30. This experiment was performed without or with LPS (1 µg/mL), which induces iNOS expression (Figure S1). […] Compound 30 only killed 20% of the cells at 500 μM (Figure S1A). In the presence of LPS (1 µg/mL), cell viability was reduced by 30% due to the inhibition by NO of key enzymes involved in cell metabolism (Figure S1B).
The macrophage cell line RAW 264.7 (a gift from Dr. A. Blangy, Montpellier, France) was cultured in Dulbecco’s Modified Eagle’s Medium (DMEM) supplemented with 10% FCS, 100 units/mL penicillin, 100 µg/mL streptomycin, and 2 mM L-glutamine.
Cellular NO production was measured using the Griess reagent (Sigma-Aldrich), which evaluates the nitrite content in culture media. Cellular toxicity was estimated by the MTT assay (Sigma-Aldrich) in RAW 264.7 cells after the induction (or not) of iNOS by LPS, according to the manufacturer’s recommendations.

[5] = dipeptide-like series, recombinant enzyme, 10 µM arginine, triplicate, NI = <50% inhibition at 100 μM
[6] = 1,2,4-oxadiazole series, recombinant enzyme, 10 µM arginine, triplicate, NI = <50% inhibition at 100 μM

T2 sequence (P29476 whole entry): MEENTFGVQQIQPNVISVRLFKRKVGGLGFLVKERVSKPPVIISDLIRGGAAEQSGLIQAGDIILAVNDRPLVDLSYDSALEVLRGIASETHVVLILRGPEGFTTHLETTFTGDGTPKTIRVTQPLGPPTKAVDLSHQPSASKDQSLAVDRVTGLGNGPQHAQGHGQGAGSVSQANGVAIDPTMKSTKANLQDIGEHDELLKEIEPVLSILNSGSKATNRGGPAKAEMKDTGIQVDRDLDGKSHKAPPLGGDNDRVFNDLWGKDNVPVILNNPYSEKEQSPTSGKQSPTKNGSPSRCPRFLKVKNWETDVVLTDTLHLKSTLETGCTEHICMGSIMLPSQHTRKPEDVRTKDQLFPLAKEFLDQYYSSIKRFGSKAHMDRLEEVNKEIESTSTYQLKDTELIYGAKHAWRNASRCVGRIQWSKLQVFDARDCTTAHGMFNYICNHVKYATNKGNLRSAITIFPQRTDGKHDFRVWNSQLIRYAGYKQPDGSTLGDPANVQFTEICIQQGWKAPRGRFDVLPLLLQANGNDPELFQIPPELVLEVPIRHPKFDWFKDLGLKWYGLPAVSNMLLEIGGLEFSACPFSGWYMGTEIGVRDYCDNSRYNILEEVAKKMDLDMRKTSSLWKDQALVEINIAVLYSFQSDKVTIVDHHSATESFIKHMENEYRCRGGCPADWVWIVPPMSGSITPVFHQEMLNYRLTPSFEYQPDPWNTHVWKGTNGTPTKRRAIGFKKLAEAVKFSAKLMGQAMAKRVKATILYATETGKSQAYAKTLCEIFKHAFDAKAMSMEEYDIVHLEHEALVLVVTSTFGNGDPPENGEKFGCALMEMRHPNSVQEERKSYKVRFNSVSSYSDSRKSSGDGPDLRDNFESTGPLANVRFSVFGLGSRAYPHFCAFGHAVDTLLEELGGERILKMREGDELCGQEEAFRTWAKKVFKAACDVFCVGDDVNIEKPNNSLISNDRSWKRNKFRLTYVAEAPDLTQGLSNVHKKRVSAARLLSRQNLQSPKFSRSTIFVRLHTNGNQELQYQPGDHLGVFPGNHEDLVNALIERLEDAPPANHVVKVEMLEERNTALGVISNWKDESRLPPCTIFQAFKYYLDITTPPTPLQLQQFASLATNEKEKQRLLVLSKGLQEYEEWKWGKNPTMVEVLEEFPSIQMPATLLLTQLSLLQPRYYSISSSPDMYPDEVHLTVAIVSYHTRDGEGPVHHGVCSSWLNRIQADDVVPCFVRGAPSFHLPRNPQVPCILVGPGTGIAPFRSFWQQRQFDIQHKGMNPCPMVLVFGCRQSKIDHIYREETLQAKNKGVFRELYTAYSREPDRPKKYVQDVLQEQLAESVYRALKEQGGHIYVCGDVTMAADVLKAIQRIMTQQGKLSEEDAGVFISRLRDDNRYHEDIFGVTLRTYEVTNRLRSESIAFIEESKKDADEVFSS
T3 sequence (P29473 whole entry): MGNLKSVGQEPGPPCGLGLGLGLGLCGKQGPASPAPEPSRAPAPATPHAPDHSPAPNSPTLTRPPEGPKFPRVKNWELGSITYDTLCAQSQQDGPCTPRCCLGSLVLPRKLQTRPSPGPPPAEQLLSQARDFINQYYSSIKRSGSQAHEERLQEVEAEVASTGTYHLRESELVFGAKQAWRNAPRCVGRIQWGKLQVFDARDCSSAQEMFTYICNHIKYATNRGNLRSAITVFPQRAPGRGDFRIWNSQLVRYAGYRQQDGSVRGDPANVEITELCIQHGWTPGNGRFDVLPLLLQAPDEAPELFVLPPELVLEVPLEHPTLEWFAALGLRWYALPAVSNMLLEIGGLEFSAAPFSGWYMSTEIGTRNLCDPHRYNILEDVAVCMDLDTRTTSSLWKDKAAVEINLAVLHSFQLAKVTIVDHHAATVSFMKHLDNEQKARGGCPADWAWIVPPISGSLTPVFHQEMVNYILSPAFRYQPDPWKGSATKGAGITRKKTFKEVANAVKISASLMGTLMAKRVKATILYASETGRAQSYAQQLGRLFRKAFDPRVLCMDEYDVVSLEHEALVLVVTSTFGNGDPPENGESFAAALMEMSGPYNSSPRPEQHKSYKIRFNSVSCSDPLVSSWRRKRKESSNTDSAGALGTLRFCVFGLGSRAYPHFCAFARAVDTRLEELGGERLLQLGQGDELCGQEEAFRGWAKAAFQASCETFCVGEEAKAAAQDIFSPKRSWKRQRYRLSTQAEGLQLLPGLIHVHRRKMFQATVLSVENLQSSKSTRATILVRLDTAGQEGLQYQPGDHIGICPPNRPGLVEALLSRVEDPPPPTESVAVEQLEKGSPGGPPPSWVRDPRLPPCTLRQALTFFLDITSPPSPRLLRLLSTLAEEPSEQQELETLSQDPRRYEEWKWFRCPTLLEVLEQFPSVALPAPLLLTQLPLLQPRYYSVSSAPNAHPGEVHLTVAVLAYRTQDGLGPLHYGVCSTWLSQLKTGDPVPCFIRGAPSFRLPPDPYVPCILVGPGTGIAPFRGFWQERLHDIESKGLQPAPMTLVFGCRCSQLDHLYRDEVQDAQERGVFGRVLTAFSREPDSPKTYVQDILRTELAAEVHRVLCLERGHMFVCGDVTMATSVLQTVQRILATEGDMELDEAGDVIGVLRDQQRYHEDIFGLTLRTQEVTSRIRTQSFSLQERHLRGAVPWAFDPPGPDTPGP

| IC50 ([1]; dipeptide-like series) [µM] | IC50 [2, 5] [µM] | inhibition at 100 µM ([3]; dipeptide-like series) [%] | IC50 ([1]; 1,2,4-oxadiazole series) [µM] | IC50 [2, 6] [µM] | Structure (SMILES) | other results |
| --- | --- | --- | --- | --- | --- | --- |
| 31.3 | 25.2 | < 50 |  |  | CCSC(=N)NCCC[C@H](N)C(=O)N[C@H]1CCCN(Cc2cc(O)ccc2[N+](=O)[O-])C1 [Compound 15] |  |
|  |  |  | 83.7 | 58.9 | CCSC(=N)NCCC[C@H](N)c1nc(CCN)no1 [Compound 28] | inhibition at 100 µM ([3]; 1,2,4-oxadiazole series): < 50% |
|  |  |  | 11.1 | 13.4 | CCSC(=N)NCCC[C@H](N)c1nc(CCNCc2ccccc2)no1 [Compound 29] | IC50 ([3]; 1,2,4-oxadiazole series): 17.9 µM |
|  |  |  | 1.3 | 1.6 | CCSC(=N)NCCC[C@H](N)c1nc(CCN(Cc2ccccc2)Cc2ccccc2)no1 [Compound 30] | Cells killed ([4]; RAW 264.7, absence of LPS, 500 μM): 20%; Effect on cell viability (MTT) ([4]; RAW 264.7, absence of LPS): did not modify cell viability; IC50 ([3]; 1,2,4-oxadiazole series): 99.6 µM |
|  |  |  | 11.1 | 9.9 | CCSC(=N)NCCC[C@H](N)c1nc(CCN(Cc2ccccc2C)Cc2ccccc2C)no1 [Compound 31] | inhibition at 100 µM ([3]; 1,2,4-oxadiazole series): < 50% |
|  |  |  | 51.6 | 60.1 | CCSC(=N)NCCC[C@H](N)c1nc(CCNCc2c(C)cccc2C)no1 [Compound 32] |  |
|  |  |  | 71.5 | 10.1 | CCSC(=N)NCCC[C@H](N)c1nc(CCN(Cc2c(C)cccc2C)Cc2c(C)cccc2C)no1 [Compound 33] | inhibition at 100 µM ([3]; 1,2,4-oxadiazole series): < 50% |
|  |  |  | 24.3 | 3.1 | CCSC(=N)NCCC[C@H](N)c1nc(CCN(Cc2ccccc2O)Cc2ccccc2O)no1 [Compound 36] | IC50 ([3]; 1,2,4-oxadiazole series): 20.2 µM |
|  |  |  | 15.8 | 0.3 | CCSC(=N)NCCC[C@H](N)c1nc(CCN(Cc2ccc([N+](=O)[O-])cc2)Cc2ccc([N+](=O)[O-])cc2)no1 [Compound 37] | Selectivity for nNOS against eNOS ([2]; from IC50 values): ~40 fold; Selectivity for nNOS against iNOS ([2]; from IC50 values): ~50 fold; Gain in nNOS inhibition potency over non-substituted compound 28 ([2]; times more potent than 28): 200; IC50 ([3]; 1,2,4-oxadiazole series): 11.8 µM |
|  |  |  | 15.9 | 0.6 | CCSC(=N)NCCC[C@H](N)c1nc(CCN(Cc2cccc([N+](=O)[O-])c2)Cc2cccc([N+](=O)[O-])c2)no1 [Compound 38] | IC50 ([3]; 1,2,4-oxadiazole series): 3.9 µM |
|  |  |  | 8 | 27 | CCSC(=N)NCCC[C@H](N)c1nc(CCNCc2ccccc2[N+](=O)[O-])no1 [Compound 39] | IC50 ([3]; 1,2,4-oxadiazole series): 48.2 µM |
|  |  |  | 36.3 | 3 | CCSC(=N)NCCC[C@H](N)c1nc(CCNCc2cc(O)ccc2[N+](=O)[O-])no1 [Compound 41] |  |

Continued, compound first:

| Structure (SMILES) | IC50 ([1]; dipeptide-like series) [µM] | IC50 [2, 5] [µM] | inhibition at 100 µM ([3]; dipeptide-like series) [%] | IC50 ([1]; 1,2,4-oxadiazole series) [µM] | IC50 [2, 6] [µM] | other results |
| --- | --- | --- | --- | --- | --- | --- |
| CCSC(=N)NCCC[C@H](N)C(=O)N[C@@H]1CCCN(Cc2ccccc2)C1 [Compound 8] | 25.6 | 15.6 | < 50 |  |  |  |
| CCSC(=N)NCCC[C@H](N)C(=O)N[C@H]1CCCN(Cc2ccccc2O)C1 [Compound 9] | 51 | 51.1 | < 50 |  |  |  |
| CCSC(=N)NCCC[C@H](N)C(=O)N[C@H]1CCCN(Cc2cc(O)ccc2O)C1 [Compound 10] | 23.9 | 2 |  |  |  | IC50 ([3]; dipeptide-like series): 26.7 µM |
| CCSC(=N)NCCC[C@H](N)C(=O)N[C@@H]1CCCN(Cc2cc(O)ccc2O)C1 [Compound 11] | 73.4 |  |  |  |  | IC50 ([3]; dipeptide-like series): 25.4 µM |
| CCSC(=N)NCCC[C@H](N)C(=O)N[C@H]1CCCN(Cc2ccccc2[N+](=O)[O-])C1 [Compound 12] | 46 |  | < 50 |  |  | inhibition at 100 µM ([2]; dipeptide-like series, recombinant enzyme, 10 µM arginine, triplicate, NI = <50% inhibition at 100 μM, read-out: IC50 (μM) nNOS (Rat)): < 50% |
| CCSC(=N)NCCC[C@H](N)C(=O)N[C@@H]1CCCN(Cc2ccccc2[N+](=O)[O-])C1 [Compound 13] | 78.9 | 30.6 | < 50 |  |  |  |
| CCSC(=N)NCCC[C@H](N)C(=O)N[C@H]1CCCN(Cc2cc(OC)c(OC)c(OC)c2)C1 [Compound 16] | 54.9 | 49.6 | < 50 |  |  |  |
| CCSC(=N)NCCC[C@H](N)C(=O)N[C@H]1CCCN(Cc2cccc(C(F)(F)F)c2)C1 [Compound 20] |  | 15.4 | < 50 |  |  | inhibition at 100 µM ([1]; dipeptide-like series, read-out: IC50 (μM) iNOS (Mouse)): < 50% |
| CCSC(=N)NCCC[C@H](N)C(=O)N[C@H]1CCCN(Cc2ccc(-c3cccc([N+](=O)[O-])c3)cc2)C1 [Compound 24] | 21.6 | 3.5 |  |  |  | IC50 ([3]; dipeptide-like series): 18 µM |
| CCSC(=N)NCCC[C@H](N)C(=O)N[C@H]1CCCN(Cc2cccc(-c3ccccc3)c2)C1 [Compound 25] | 36.5 | 2.8 | < 50 |  |  |  |
| CCSC(=N)NCCC[C@H](N)C(=O)N[C@H]1CCCN(Cc2cccc(-c3cccc([N+](=O)[O-])c3)c2)C1 [Compound 26] | 48.3 | 1.3 | < 50 |  |  | Reversal of LPS-induced reduction of cell viability ([4]; RAW 264.7, LPS 1 µg/mL): none partially reversed the LPS effect; Effect on cell viability (MTT) ([4]; RAW 264.7, absence of LPS): fully toxic |
| CCSC(=N)NCCC[C@H](N)c1nc(CCN(Cc2cccc3ccccc23)Cc2cccc3ccccc23)no1 [Compound 34] |  |  |  | 4 | 1.4 | inhibition at 100 µM ([3]; 1,2,4-oxadiazole series): < 50% |
| CCSC(=N)NCCC[C@H](N)c1nc(CCN(Cc2cc(O)ccc2[N+](=O)[O-])Cc2cc(O)ccc2[N+](=O)[O-])no1 [Compound 42] |  |  |  | 7 | 1.1 | inhibition at 100 µM ([3]; 1,2,4-oxadiazole series): < 50% |
